Counter-ions that a name gives are not always drawn. Blank lines part the entries; values can stand above or below the molecule they belong to.
Experiments:
guinea pigs [1] = assay: Dermal sensitization challenge study (definitive study); type: in vivo, guinea pig; settings: 40 mg/mL challenge
Experimental: Based on the results from this initial phase of dermal sensitization studies, a definitive challenge dermal sensitivity study was conducted, as described in Example 3. Briefly, thirty animals were divided into three test groups of 10 animals each. The animals in Group 5 were treated with fenoldopam mesylate, the animals in Group 6 with R-fenoldopam mesylate and the animals in Group 7 were treated with vehicles alone as a control.
All animals were initially treated with intradermal injections of the test compound, e.g., fenoldopam mesylate (Group 5) or R-fenoldopam (Group 6), in a 1:1 mixture of propylene glycol:water or in a mixture of Freund's Complete Adjuvent (FCA) in propylene glycol:water. The drug concentration in these vehicle mixtures was 40 mg/mL (see Table 4 in Example 3). The animals were also treated with FCA in water alone. The animals in Group 7 received the same three formulations, except for the absence of fenoldopam.
One week after the intradermal injections, each of the test formulations was applied topically to the injection site. The topical application, in the form of a saturated patch of filter paper, was left in place for 48 hours.
Two weeks after the topical application, the animals in groups 5 and 6 received a challenge dose of 40 mg/mL of the test compound in PG:water, applied topically to a naive site. On the opposing side of the animal, the vehicle alone (PG:water) was applied. The animals in Group 7 received the vehicle alone on both sides. 24 hours after the topical challenge dose, the site was scored for dermal sensitization using the four-point scale given above.
Thirty guinea pigs were obtained and cared for as set forth in Example 2.
On Day 1 of the study, an area approximately 4 cm×6 cm was clipped with an electric clipper along the midline over the shoulder region of each animal in the test and control groups. Two rows of three 0.1 mL intradermal injections were made within the boundaries of a 2 cm×4 cm area, one row on each side of the midline. The injections in each row were as follows: at the anterior site, the animal received 0.1 mL of the prepared Freund's Complete Adjuvent (FCA) solution (Groups 5, 6 and 7); at the medial site, the animals received 0.1 mL of the respective prepared test material (Groups 5 and 6) or vehicle control (Group 7); and at the posterior site, the animals received 0.1 mL of the respective test material (drug in PG:water) further mixed with FCA solution (Groups 5 and 6) or a 1:1 dilution of the PG:water vehicle control in FCA.
On Day 7, the area of intradermal injection on each animal in Groups 5, 6 and 7 was clipped free of hair with an electric clipper. The clipped area was treated with 10% w/w sodium lauryl sulfate in petrolatum. […]

guinea pigs [2] = settings: guinea pig, in vivo
Experimental: (§1) Dermal sensitization studies in guinea pigs were done to assess the contact sensitization of fenoldopam mesylate and of R-fenoldopam mesylate, the active enantiomer, when administered topically and intradermally. Each of the drugs, the fenoldopam mesylate and the R-fenoldopam mesylate, were administered to the animals from a 50:50 mixture of propylene glycol/water, at drug concentrations of 40 mg/mL, 30 mg/mL, 20 mg/mL, and 10 mg/mL.
As described in Example 2, sixteen animals were divided into 4 groups of 4 animals each. The first group of 4 animals (Group 1) were treated with a topical application of fenoldopam mesylate at the four concentrations. Each animal, after having the hair removed from its back and sides, received each of the concentrations applied at four separate sites. The animals in Group 2 were similarly treated, except with R-fenoldopam. After 24 hours of exposure to the test material, the application site was scored on a four-point scale for dermal reactions (0=no reaction, 1=moderate mild redness, 2=moderate and diffuse redness, 3=intense redness and swelling). […]
For the topical application, the test materials were placed on 2 cm×2 cm pieced of filter paper to saturation and allowed to remain in place on the animal for 24 hours. […] The sites were scored on the following four-point scale for dermal reactions at approximately 24 and 48 hours after patch removal: […]

guinea pigs [3] = settings: guinea pig, in vivo; remark: listed apart in the source
Experimental: as §1
Dermal sensitization was also evaluated following intradermal injection of fenoldopam mesylate and R-fenoldopam at the same concentrations used in the topical screening. As described in Example 2, four animals (Group 3) were treated with […] injections of fenoldopam mesylate at four injection sites, one for each of the four concentrations. Four animals in Group 4 were similarly injected with R-fenoldopam at the four concentrations. 24 hours after injection, the injection sites were scored for dermal reaction on the 4-point scale.
Guinea pigs (strain: CRl (HA)BR) were obtained from Charles River Laboratories. The animals were young adults, weighing between 350-550 g at the start of the study. Each animals was housed individually and fed ad libitum a certified
A stock solution of 50% propylene glycol/50% sterile water mixture was prepared as the control material and for preparation of the test materials.
On each day of testing, a 40 mg/mL fenoldopam mesylate or R-fenoldopam mesylate in 50% propylene glycol/50% sterile water solution was prepared using the stock solution. The 40 mg/mL drug solution was diluted with the stock solution to prepare solutions of 30 mg/mL, 20 mg/mL and 10 mg/mL of both the racemate and the enantiomer. All test materials were used within 8 hours of preparation and were stored at room temperature until administered.
Sixteen guinea pigs were divided into the following groups:
For the intradermal injection, the four animals in Group 3 were treated with intradermal injection of fenoldopam mesylate and the four animals in Group 4 were treated with intradermal injections of R-fenoldopam mesylate. The test materials were administered at concentrations of 40 mg/mL, 30 mg/mL, 20 mg/mL and 10 mg/mL by injecting each at a volume of 0.1 mL into a separate site on the shaved back of the test animal. The areas of intradermal injections were evaluated for dermal irritation on the four-point scale given above at 24 and 48 hours after injection. The test sites were clipped with an electric clipper before the first reading.

[4] = cited from earlier work
[5] = system: dopamine type-1 receptors; settings: cited from earlier work
[6] = exposure to the atmosphere during storage; cited from earlier work
[7] = cited from earlier work; remark: listed apart in the source
[8] = intravenous infusion, therapeutic dosages

Dermal Reactions, topical application (guinea pigs [2]): 0
Dermal Reactions, intradermal injection (guinea pigs [3]): 2
appearance of injection site (footnote) (guinea pigs [3]): Whitish in color
Structure (SMILES): Oc1ccc(C2CNCCc3c2cc(O)c(O)c3Cl)cc1 (racemic) [fenoldopam mesylate]
animals scored as having "scattered mild redness" (guinea pigs [1]): 6 of the 10 animals
dermal sensitization (summary) (guinea pigs [1]): moderate dermal sensitization

Structure (SMILES): Oc1ccc(C2CNCCc3c2cc(O)c(O)c3Cl)cc1 (racemic) [racemic fenoldopam]
average clearance (CL) ([4]; human, in vivo, iv): 2.6 L/min
half-life (t1/2) ([4]; human, in vivo, iv): 4.6 min

Dermal Reactions, topical application (guinea pigs [2]): 0
Dermal Reactions, intradermal injection (guinea pigs [3]): 2
appearance of injection site (footnote) (guinea pigs [3]): Whitish in color
Structure (SMILES): Oc1ccc([C@H]2CNCCc3c2cc(O)c(O)c3Cl)cc1 [R-fenoldopam mesylate]
animals scored as having "scattered mild redness" (guinea pigs [1]): 5 of the 10 animals
dermal sensitization (summary) (guinea pigs [1]): moderate dermal sensitization

Structure (SMILES): Oc1ccc([C@H]2CNCCc3c2cc(O)c(O)c3Cl)cc1 [R-fenoldopam]
biological activity of enantiomer [5]: the activity of the drug is due to the R-enantiomer

Structure (SMILES): Oc1ccc([C@@H]2CNCCc3c2cc(O)c(O)c3Cl)cc1 [S-fenoldopam]
biological activity of enantiomer [5]: relatively inactive

Structure (SMILES): Oc1ccc(C2CNCCc3c2cc(O)c(O)c3Cl)cc1 (stereo not shown) [fenoldopam free base]
oxidation [6]: readily oxidized

Structure (SMILES): Oc1ccc(C2CNCCc3c2cc(O)c(O)c3Cl)cc1 (stereo not drawn) [fenoldopam, 6-chloro-2,3,4,5-tetrahydro-l-(4-hydroxyphenyl)-1H-3-benzazepine-7,8-diol]
dopamine agonism / peripheral vasodilation ([5]; via stimulation of dopamine type-1 receptors): dopamine agonist that causes peripheral vasodilation
blood pressure ([7]; in vivo): decrease in blood pressure
duration of antihypertensive and renal effects ([7]; in vivo): short lasting
renal vasodilation, diuresis and natriuresis ([7]; in vivo): renal vasodilation, diuresis and natriuresis
creatinine clearance, urinary flow and excretion of sodium and potassium [7, 8]: increasing creatinine clearance, urinary flow and excretion of sodium and potassium
glomerular filtration rate [7, 8]: maintaining glomerular filtration rate
renal blood flow [7, 8]: increases renal blood flow
renal vascular resistance [7, 8]: decreases renal vascular resistance
time to achieve dose-dependent steady-state plasma concentration ([4]; intravenous, about 0.01-1.6 μg/kg/min for up to 48 hours): about 20 minutes
first-pass metabolism ([4]; via sulfation and glucuronidation): high first-pass metabolism

From US6238693A, “Transdermal administration of fenoldopam” (priority 1999, dated 2001)
